Measurements from patent US9801850B2, “Antibacterial agent” (OSAKA UNIVERSITY, priority 2009, dated 2017).
In brackets after ≈: the same amount, converted by molar mass.

What was measured:
MSSA ATCC25923 = assay: MIC, broth microdilution (Example 2, Table 6); type: cell-based, Staphylococcus aureus
MSSA ATCC12600 = assay: MIC, broth microdilution (Example 2, Table 6); type: cell-based, Staphylococcus aureus
MSSA ATCC29213 = assay: MIC, broth microdilution (Example 2, Table 6); type: cell-based, Staphylococcus aureus
[1] = test system: MSSA clinical isolate No. 2; assay: MIC, broth microdilution (Example 2, Table 6); type: cell-based, Staphylococcus aureus
[2] = test system: MSSA clinical isolate No. 4; assay: MIC, broth microdilution (Example 2, Table 6); type: cell-based, Staphylococcus aureus
[3] = test system: MSSA clinical isolate No. 5; assay: MIC, broth microdilution (Example 2, Table 6); type: cell-based, Staphylococcus aureus
[4] = test system: MRSA clinical isolate No. 8; assay: MIC, broth microdilution (Example 2, Table 6); type: cell-based, Staphylococcus aureus
[5] = test system: MRSA clinical isolate No. 9; assay: MIC, broth microdilution (Example 2, Table 6); type: cell-based, Staphylococcus aureus
[6] = test system: MRSA clinical isolate No. 10; assay: MIC, broth microdilution (Example 2, Table 6); type: cell-based, Staphylococcus aureus
[7] = test system: MRSA clinical isolate No. 11; assay: MIC, broth microdilution (Example 2, Table 6); type: cell-based, Staphylococcus aureus
[8] = test system: MRSA clinical isolate No. 12; assay: MIC, broth microdilution (Example 2, Table 6); type: cell-based, Staphylococcus aureus
[9] = test system: Bacillus cereus ATCC14579; assay: Antibacterial spectrum MIC (Table 7); type: cell-based
Experimental: (§1) Methicillin-susceptible Staphylococcus aureus (MSSA) NCTC8325 and methicillin-resistant Staphylococcus aureus (MRSA) ATCC43300 were used as bacteria. The bacteria of each type were cultured using Mueller-Hinton Broth (MH-broth, Difco) as a medium. Then, the minimum inhibitory concentration (MIC) of each of the EGCG derivatives was measured by a broth microdilution method in accordance with the Clinical and Laboratory Standards Institute (CLSI) guidelines (hereinafter the same).
(§2) First, each of the EGCG derivatives was dissolved in 100% dimethyl sulfoxide (DMSO, Wako Pure Chemical Industries, Ltd.) so that the concentration thereof became 5120 μg/ml. The resultant solution was diluted with DMSO or sterile distilled water so as to prepare two-fold dilution series of antibacterial agent solutions. […] Each of these antibacterial agent solutions was dispensed to wells of a 96-well plate. The concentration of the EGCG derivative in the antibacterial agent solution dispensed to the wells was set to be 10 times as high as the final concentration. On the other hand, the bacteria were cultured in the MH-broth at 37° C. overnight, and the thus-obtained pre-culture solution was diluted with a new MH-broth so that the concentration thereof in the MH-broth became 10^−4 (10^4-fold dilution), thus preparing a bacterial culture solution of about 1×10^5 CFU/ml (CFU: Colony Forming Unit, the number of viable cells). The bacterial culture solution was further added to each well, and the mixture was cultured at 37° C. for 18 hours. The ratio (volume ratio) between the antibacterial agent solution and the bacterial culture solution added to each well was set to 1:9 (the antibacterial agent solution:the bacterial culture solution), and the volume of the mixture of them per well was set to 100 μl in total. The final concentration of the EGCG derivative in the mixture was set to 8 μg/ml to 512 μg/ml, and the number of viable cells in the mixture was set to about 1×10^5 CFU/ml. Then, after the completion of the culture, the MIC was determined. Also, the turbidity (OD600 nm) was measured using a plate reader so as to identify minor differences.
(§3) Regarding the respective type strains shown in Tables 7 and 8 below, the MIC measurement was performed using the antibacterial agent solutions of Example 2 in the same manner as described in Section (2) of Example 1, except for the following. The antibacterial agent solutions were prepared by dissolving the EGCG derivatives of Example 2 in 100% DMSO and then diluting the resultant mixtures with sterile distilled water. The respective strains were derived from ATCC or NCTC. As Moraxella catarrhalis and Aspergillus fumigatus, clinical isolates thereof without an acquired resistance mechanism were used. For nutrient-rich bacteria, namely, Streptococcus pneumoniae ATCC49619, Streptococcus pyogenes ATCC19615, Streptococcus agalactiae ATCC13813, Moraxella catarrhalis, and Haemophilis influenzae ATCC49766, Strepto Haemo supplement (Eiken Chemical Co., Ltd.) was added to media for culturing them. The MIC measurement with respect to fungi was carried out by a broth microdilution method using a RPMI1640/MOPS (pH 7.0) medium in accordance with CLSI guidelines. About 2×10^3 cells/ml of fungi were inoculated to the medium. After the culture at 35° C. for 24 to 48 hours, the MIC was determined. Also, regarding the antibacterial agent solution of Comparative Example 2, the MIC was measured in the same manner.

[10] = test system: Haemophilis influenzae ATCC49766; assay: Antibacterial spectrum MIC (Table 7); type: cell-based; details: Strepto Haemo supplement
Experimental: as §1, §2, §3

[11] = test system: Micrococcus lutus ATCC9341; assay: Antibacterial spectrum MIC (Table 7); type: cell-based
Experimental: as §1, §2, §3

[12] = test system: Neisseria gonorrhoeae ATCC49226; assay: Antibacterial spectrum MIC (Table 7); type: cell-based
Experimental: as §1, §2, §3

[13] = test system: Staphylococcus aureus ATCC43300 (MRSA); assay: Antibacterial spectrum MIC (Table 7); type: cell-based
Experimental: as §1, §2, §3

[14] = test system: Staphylococcus aureus NCTC8325; assay: Antibacterial spectrum MIC (Table 7); type: cell-based
Experimental: as §1, §2, §3

[15] = test system: Stenotrophomonas maltophilia ATCC13637; assay: Antibacterial spectrum MIC (Table 7); type: cell-based
Experimental: as §1, §2, §3

[16] = test system: Streptococcus agalactiae ATCC13813; assay: Antibacterial spectrum MIC (Table 7); type: cell-based; details: Strepto Haemo supplement
Experimental: as §1, §2, §3

Aspergillus fumigatus = assay: MIC with respect to fungi, broth microdilution (Table 8); type: cell-based; details: Aspergillus fumigatus clinical isolate; RPMI1640/MOPS (pH 7.0), 35° C., 24 to 48 hours
Experimental: as §3

[17] = test system: Candida albicans ATCC24433; assay: as above; type: cell-based; details: RPMI1640/MOPS (pH 7.0), 35° C., 24 to 48 hours
Experimental: as §3

[18] = test system: Candida glabrata ATCC90030; assay: as above; type: cell-based; details: RPMI1640/MOPS (pH 7.0), 35° C., 24 to 48 hours
Experimental: as §3

Candida krusei ATCC6258 = assay: as above; type: cell-based; details: RPMI1640/MOPS (pH 7.0), 35° C., 24 to 48 hours
Experimental: as §3

[19] = test system: Candida parapsilosis ATCC22019; assay: as above; type: cell-based; details: RPMI1640/MOPS (pH 7.0), 35° C., 24 to 48 hours
Experimental: as §3

[20] = test system: Candida tropicalis ATCC750; assay: as above; type: cell-based; details: RPMI1640/MOPS (pH 7.0), 35° C., 24 to 48 hours
Experimental: as §3

[21] = test system: Cryptococcus neoformans ATCC90112; assay: as above; type: cell-based; details: RPMI1640/MOPS (pH 7.0), 35° C., 24 to 48 hours
Experimental: as §3

Compound | MIC (MSSA ATCC25923) | MIC (MSSA ATCC12600) | MIC (MSSA ATCC29213) | MIC [1] | MIC [2] | MIC [3] | MIC [4] | MIC [6] | MIC [7] | MIC [8] | MIC [9] | MIC [11] | MIC [12] | MIC [13] | MIC [14] | MIC [15] | MIC [16] | MIC (Aspergillus fumigatus) | MIC [17] | MIC (Candida krusei ATCC6258) | further results
O=C(O[C@@H]1Cc2c(O)cc(O)cc2O[C@@H]1c1cc(O)c(O)c(O)c1)c1cc(O)c(O)c(O)c1 [EGCG, Epigallocatechin gallate, reference compound] | >128 µg/mL | >128 µg/mL | >128 µg/mL | >128 µg/mL | >128 µg/mL | 128 µg/mL (≈ 279 µM) | 128 µg/mL (≈ 279 µM) | >128 µg/mL | >128 µg/mL | >128 µg/mL | 64 µg/mL (≈ 140 µM) | 128 µg/mL (≈ 279 µM) | 32 µg/mL (≈ 69.8 µM) | 128 µg/mL (≈ 279 µM) | 128 µg/mL (≈ 279 µM) | 64 µg/mL (≈ 140 µM) | 256 µg/mL (≈ 558 µM) | 64 µg/mL (≈ 140 µM) | 64 µg/mL (≈ 140 µM) | 64 µg/mL (≈ 140 µM) | MIC [5]: >128 µg/mL; MIC [10]: 32 µg/mL (≈ 69.8 µM); MIC [18]: 32 µg/mL (≈ 69.8 µM); MIC [19]: 64 µg/mL (≈ 140 µM); MIC [20]: 64 µg/mL (≈ 140 µM); MIC [21]: 64 µg/mL (≈ 140 µM)
EGCG-linolate [EGCG-C18DE] | 32 µg/mL | 16 µg/mL | 16 µg/mL | 16 µg/mL | 16 µg/mL | 16 µg/mL | 8 µg/mL | 16 µg/mL | 32 µg/mL | 16 µg/mL | 16 µg/mL | 64 µg/mL | 16 µg/mL | 64 µg/mL | 16 µg/mL | 32 µg/mL | >64 µg/mL | 32 µg/mL | 16 µg/mL | 16 µg/mL | MIC [5]: 64 µg/mL; MIC [10]: 16 µg/mL; MIC [19]: 16 µg/mL; MIC [20]: 32 µg/mL; MIC [21]: 8 µg/mL
EGCG-stearate [EGCG-C18] | 32 µg/mL | 32 µg/mL | 32 µg/mL | 32 µg/mL | 32 µg/mL | 32 µg/mL | 16 µg/mL | 32 µg/mL | 64 µg/mL | 64 µg/mL | 32 µg/mL | 64 µg/mL | 16 µg/mL | 32 µg/mL | 32 µg/mL | 32 µg/mL | 64 µg/mL | 32 µg/mL | 16 µg/mL | 16 µg/mL | MIC [18]: 16 µg/mL; MIC [19]: 16 µg/mL; MIC [20]: 32 µg/mL; MIC [21]: 16 µg/mL
EGCG-α-linoleate [EGCG-C18TE] | 32 µg/mL | 16 µg/mL | 16 µg/mL | 16 µg/mL | 16 µg/mL | 16 µg/mL | 8 µg/mL | 16 µg/mL | 64 µg/mL | 16 µg/mL | 32 µg/mL | 64 µg/mL | 16 µg/mL | 64 µg/mL | 16 µg/mL | 32 µg/mL | >64 µg/mL | 16 µg/mL | 16 µg/mL | 16 µg/mL | MIC [5]: 64 µg/mL; MIC [10]: 16 µg/mL; MIC [19]: 16 µg/mL; MIC [20]: 16 µg/mL; MIC [21]: 8 µg/mL
